Measurements: ChEMBL document CHEMBL1201862, “PubChem BioAssay data set” (2004)
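In this assay, cells in 96-well plates receive the compound at five concentrations for 48 hours. Endpoints are linearly interpolated between the surrounding concentrations. Here, GI50 denotes the concentration required for 50% inhibition of growth.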 The source made the active and inactive calls. Rule as the data show it: active = GI50 up to about 1.1 µM and inactive = higher.

Assays:
Assay in all cases: NCI anticancer screen, dose series, 48 h
A498 = test system: A498
CAKI-1 = test system: CAKI-1
UO-31 = test system: UO-31
786-0 = test system: 786-0
SF-539 = test system: SF-539
SN12C = test system: SN12C
UACC-257 = test system: UACC-257
LOX IMVI = test system: LOX IMVI
OVCAR-8 = test system: OVCAR-8
SK-MEL-5 = test system: SK-MEL-5
HL-60 = test system: HL-60
UACC-62 = test system: UACC-62
HT-29 = test system: HT-29
HOP-62 = test system: HOP-62
M19-MEL = test system: M19-MEL
SF-268 = test system: SF-268
COLO 205 = test system: COLO 205

Measured: GI50

CCOP(=O)(OCC)/C(C#N)=C\c1ccc(OC(C)=O)cc1
inactive: A498 > 100 µM | CAKI-1 > 100 µM | UO-31 > 100 µM | 786-0 > 100 µM | SF-539 > 100 µM | SN12C > 100 µM | UACC-257 > 100 µM | LOX IMVI > 100 µM | OVCAR-8 > 100 µM | SK-MEL-5 > 100 µM | HL-60 > 100 µM | UACC-62 > 100 µM | HT-29 > 100 µM | HOP-62 > 100 µM | M19-MEL > 100 µM | SF-268 > 66.2 µM | COLO 205 > 100 µM
